Measurements taken from patent US9492470B2, “Use of HMGA-targeted phosphorothioate DNA aptamers to suppress carcinogenic activity and increase sensitivity to chemotherapy agents in human cancer cells” (MIAMI UNIVERSITY, priority 2012, dated 2016).
Read-outs that look alike come from different tables or passages of the source. In the oligonucleotide strings, read from the 5' end, every base follows the letter of its sugar. An asterisk marks phosphorothioate; unmarked linkages are phosphodiester. Other units and linkages are bracketed, terminal groups are in braces. A string of capitals states the bases alone. d = 2'-deoxy (DNA)

What was measured:
[1] = test system: Miapaca-2 cells; assay: Cell growth with gemcitabine treatment after sDNA transfection, Miapaca-2; assay type: cell-based, Human; conditions: for Fold change in numbers of viable cells normalized relative to TC: 96 hours
[2] = test system: AsPC-1 cells; assay: Cell growth with gemcitabine treatment after sDNA transfection, AsPC-1; assay type: cell-based, Human; conditions: for Fold change in numbers of viable cells normalized relative to TC: AsPC-1, 0.1 ug sDNA, 96 hours
Procedure: (§1) Cells were fixed after 96 hours and numbers of viable cells counted by measuring the absorbance at 570 nm.
(§2) Cells were transfected with 0.1 μg of TC-sDNA, Mix-sDNA, CG-sDNA, and AT-sDNA.

[3] = test system: AsPC-1 cells; conditions: for cell death: 96 h, compared to non-transfected cells; for cells dead compared to UT: AsPC-1, 0.1 ug sDNA, versus untransfected (UT) cells; for Fold change in numbers of viable cells between TC and sDNA transfected cells (in parentheses) / Fold change in numbers of viable cells between UT and transfected cells: 96 h after transfection
Procedure: AsPC-1 cells were grown in Roswell Park Memorial Institute medium supplemented with 10% FBS, and 1% penicillin-streptomycin.
Transfections using sDNA at concentrations of 0.1 and 0.25 μg per well were conducted with 5×10^4 and 1×10^5 Miapaca-2 and AsPC-1 cells, respectively, in 24-well plates and all data were collected in quadruplicate. Miapaca-2 and AsPC-1 cells were transfected with sDNA using Lipofectamine 2000 (Invitrogen,™ Life Technologies Corporation, Carlsbad, Calif.) according to the manufacturer's protocol.
Briefly, AsPC-1 cells grown in 10% FBS containing RPIM medium were trypsinized using a trypsin-EDTA solution commercially available from the Sigma-Aldrich, and used to seed fresh media in a 24-well plate with 10^5 cells per well.
After 48 hours, the cells were transfected with the selected sDNA using Lipofectamine 2000 (Invitrogen,™ Life Technologies Corporation, Carlsbad, Calif.) according to the manufacturer's protocol. […] The cells were then fixed with 4% paraformaldehyde in PBS for 20 minutes and stained in 0.1% crystal violet stain (Sigma-Aldrich) for 30 minutes. The cells were washed under running tap water, air dried, and extracted with 0.2% Triton™ X-100 for 30 minutes. […] The absorbance of the Triton X-100 was measured at 570 nm using a HTS microplate reader. All results were analyzed for statistical significance using a student's unpaired t-test.

[4] = test system: AsPC-1 cells; assay: Cell growth with gemcitabine treatment after sDNA transfection, AsPC-1; assay type: cell-based, Human; conditions: for cells died: AsPC-1, 0.25 μg AT-sDNA
[5] = test system: Miapaca-2 cells; assay: Cell growth with gemcitabine treatment after sDNA transfection, Miapaca-2; assay type: cell-based, Human; conditions: 96 hours; for Fold change in numbers of viable cells normalized relative to TC: Miapaca-2, 0.1 ug sDNA
Procedure: as §1, §2

[6] = test system: Miapaca-2 cells; assay: Cell viability (crystal violet) after sDNA transfection, Miapaca-2; assay type: cell-based, Human; conditions: for cells dead compared to TC: versus transfection control (TC) cells; for cells dead compared to UT: Miapaca-2, 0.1 ug sDNA, versus untransfected (UT) cells; for Fold change in numbers of viable cells between TC and sDNA transfected cells (in parentheses) / Fold change in numbers of viable cells between UT and transfected cells: 96 h after transfection
Procedure: The absorbance was measured at 570 nm in quadruplicate. All data from control cells were combined and averaged.

[7] = test system: HMGA1 expression levels in AsPC-1 cells; assay: Western blot of HMGA1 expression levels in AsPC-1 nuclear extracts; assay type: cell-based, Human; conditions: AsPC-1, 0.5 μg sDNA in six well plates, 48 hours
Procedure: Cytoplasmic and nuclear protein extracts were prepared from pancreatic cancer cells using NE-PER extraction kit (Thermo Scientific, Rockford, Ill.). Protein concentrations were determined using a bicinchoninic acid assay with bovine serum albumin as a standard. Nuclear proteins that contained 25 or 15 μg total protein were separated by SDS-PAGE with a 4%-20% Criterion gradient gel (Bio-Rad Laboratories, Inc., Hercules, Calif.). The proteins were transferred to immuno-blot PVDF membrane (0.2 μm) (Bio-Rad Laboratories, Inc., Hercules, Calif.) and blocked in 5% dry milk in PBS supplemented with 0.2% Tween 20 (PBST). The PVDF membranes were then probed with 1:1000 dilution of rabbit anti-HMGA1 antibody (Santa Cruz Biotechnology Inc, Santa Cruz, Calif.) and 1:100 dilution of rabbit anti-HMGA2 antibody (Abcam plc, Cambridge, Mass.), in 3% BSA in PBST at 4° C. overnight. After three washes with PBST, the membrane was blotted with secondary antibody, ant-rabbit IgG-HRP (cell signaling) 1:5000 dilution in 1% dry milk in PBST at room temperature for 1 hour. An enhanced chemiluminescence detection (ECL, GE Healthcare Life Sciences, Piscataway, N.J.) system was used to detect target proteins. To ensure equal loading of the proteins between groups, membranes were re-probed with anti-TATA binding protein antibody (Abcam plc, Cambridge, Mass.). […] The control was nuclear extract from untreated cells. Triplicates of each sample were run on the gel and analyzed with the Alpha Imager. The relative HMGA1 densities were obtained by dividing HMGA 1 density by TBP density. […] TATA binding protein (TBP) was used as a loading control. […] HMGA1 expression levels were examined after transfection with CG-sDNA or AT-sDNA to determine if the transfection procedure affected HMGA1 expression levels. The AT-sDNA used for transfection contained an 18 adenine/thymine stretch enabling HMGA1 to bind the DNA with all three AT-hooks. As a negative control, a non-HMGA1-targeted sDNA containing an equal length of DNA but with no AT-stretches, i.e. CG-sDNA, was used. […]

With “AT-sDNA: AT-rich phosphorothioate DNA, 5′-G*G*G*A*A*A*A*A*A*T*T*T*T*T*T*A*A*A*A*A*A*C*C*C-3′ (SEQ ID NO: 1), sulfur substitution at every position (DNA dG*dG*dG*dA*dA*dA*dA*dA*dA*dT*dT*dT*dT*dT*dT*dA*dA*dA*dA*dA*dA*dC*dC*dC)” the “Fold change in numbers of viable cells normalized relative to TC” value ([1]; Miapaca-2, 0.1 ug sDNA, Gemcitabine 1 nM) was −1.38 fold, the “Fold change in numbers of viable cells normalized relative to TC” value ([1]; Miapaca-2, 0.25 ug sDNA, Gemcitabine 0 nM) was −3.68 fold and the “Fold change in numbers of viable cells normalized relative to TC” value ([1]; Miapaca-2, 0.25 ug sDNA, Gemcitabine 1 nM) was −4.45 fold. For the same substance, the “Fold change in numbers of viable cells normalized relative to TC” value ([1]; Miapaca-2, 0.25 ug sDNA, Gemcitabine 10 nM) was −4.14 fold, the “Fold change in numbers of viable cells normalized relative to TC” value ([1]; Miapaca-2, 0.25 ug sDNA, Gemcitabine 30 nM) was −8.32 fold and the “Fold change in numbers of viable cells normalized relative to TC” value ([1]; Miapaca-2, 0.25 ug sDNA, Gemcitabine 100 nM) was −11.81 fold. The “Fold change in numbers of viable cells normalized relative to TC” value ([1]; Miapaca-2, 0.25 ug sDNA, Gemcitabine 1000 nM) was −11.31 fold, the “overall drop in the number of viable cells” value ([1]; Miapaca-2, either 0.1 or 0.25 μg AT-sDNA, 100 nm or greater gemcitabine) was roughly 10 fold and the cells dying ([2]; AsPC-1, 0.1 μg AT-sDNA, 100 nM gemcitabine) was 29.4%. The “Fold change in numbers of viable cells normalized relative to TC” value ([2]; Gemcitabine 0 nM) was −1.44 fold, the “Fold change in numbers of viable cells normalized relative to TC” value ([2]; Gemcitabine 1 nM) was −1.58 fold and the “Fold change in numbers of viable cells normalized relative to TC” value ([2]; Gemcitabine 10 nM) was −1.71 fold. The “Fold change in numbers of viable cells normalized relative to TC” value ([2]; Gemcitabine 30 nM) was −1.86 fold, the “Fold change in numbers of viable cells normalized relative to TC” value ([2]; Gemcitabine 100 nM) was −2.04 fold and the “Fold change in numbers of viable cells normalized relative to TC” value ([2]; Gemcitabine 1000 nM) was −2.33 fold. The cell death ([3]; AsPC-1, 0.1 μg sDNA per well) was 33%, the “cells dead compared to TC” value ([3]; AsPC-1, 0.1 μg sDNA, 48 hrs, versus transfection control (TC) cells) was 22.3% and the “cells dead compared to UT” value ([3]; 48 hrs) was 42.0%. The “Fold change in numbers of viable cells between TC and sDNA transfected cells (in parentheses)” value (“Fold change in numbers … (in parentheses)” for short) ([3]; AsPC-1, 0.1 μg sDNA) was −1.44 fold, the “Fold change in numbers of viable cells between UT and transfected cells” value ([3]; AsPC-1, 0.1 μg sDNA) was −1.57 fold and the “cells dead compared to TC” value ([3]; AsPC-1, 0.1 μg sDNA, 96 hrs, versus transfection control (TC) cells) was 30.7%. For the same substance, the “cells dead compared to UT” value ([3]; 96 hrs) was 36.1%, the cell death ([3]; AsPC-1, 0.25 μg sDNA per well) was 44% and the “Fold change in numbers … (in parentheses)” value ([3]; AsPC-1, 0.25 μg sDNA) was −1.65 fold. The “Fold change in numbers of viable cells between UT and transfected cells” value ([3]; AsPC-1, 0.25 μg sDNA) was −1.79 fold, the “cell death compared to TC” value ([3]; AsPC-1, 0.25 μg sDNA, 96 hours, versus TC cells) was 39.4% and the cell death ([3]; AsPC-1, 1.0 μg sDNA per well) was 57%. The “cells dead compared to TC” value ([3]; AsPC-1, 1.0 μg sDNA, 96 hours, versus TC cells) was 53.6%, the cell death ([4]; AsPC-1, 0.025 μg AT-sDNA, 1000 nM gemcitabine) was 31% and the cells dying ([4]; AsPC-1, 0.1 μg AT-sDNA, 1 nM gemcitabine) was 9.0%. For the same substance, the cells died ([4]; 1 nM gemcitabine) was 14.9%, the cells died ([4]; 100 nM gemcitabine) was 41.7% and the “overall drop in the number of viable cells after gemcitabine treatment” value ([4]; AsPC-1, AT-sDNA transfection) was 2-4 fold. The “cells dead / change in cell viability” value ([5]; Miapaca-2, 0.1 μg sDNA, 1 nM gemcitabine) was 33.6%, the cells surviving ([5]; Miapaca-2, 0.1 μg sDNA, 10 nM gemcitabine, normalized to 0 nM gemcitabine) was 51.2% and the “Fold change in numbers of viable cells normalized relative to TC” value ([5]; Gemcitabine 0 nM) was −1.52 fold. For the same substance, the “Fold change in numbers of viable cells normalized relative to TC” value ([5]; Gemcitabine 10 nM) was −1.79 fold, the “Fold change in numbers of viable cells normalized relative to TC” value ([5]; Gemcitabine 30 nM) was −7.07 fold and the “Fold change in numbers of viable cells normalized relative to TC” value ([5]; Gemcitabine 100 nM) was −9.58 fold. For the same substance, the “Fold change in numbers of viable cells normalized relative to TC” value ([5]; Gemcitabine 1000 nM) was −6.82 fold, the “cells dead compared to TC” value ([6]; Miapaca-2, 0.1 μg sDNA, 48 hrs) was 17.2% and the “cells dead compared to UT” value ([6]; 48 hrs) was 48.4%. The “Fold change in numbers … (in parentheses)” value ([6]; Miapaca-2, 0.1 μg sDNA) was −1.52 fold, the “Fold change in numbers of viable cells between UT and transfected cells” value ([6]; Miapaca-2, 0.1 μg sDNA) was −2.36 fold and the “cells dead compared to TC” value ([6]; Miapaca-2, 0.1 μg sDNA, 96 hrs) was 34.1%. The “cells dead compared to UT” value ([6]; 96 hrs) was 58.9%, the “Fold change in numbers … (in parentheses)” value ([6]; Miapaca-2, 0.25 μg sDNA) was −3.68 fold and the “Fold change in numbers of viable cells between UT and transfected cells” value ([6]; Miapaca-2, 0.25 μg sDNA) was −6.07 fold. For the same substance, the “change in HMGA1 expression levels after sDNA transfection” value [7] was “no changes”.
